Reference: patent US20100292231A1, “Indazole Compounds for Treating Inflammatory Disorders, Demyelinating Disorders and Cancers” (priority 2007, published 2010)
Where two headings read alike, the source gives them in different places.

Assays:
Assay in all cases: SelectScreen kinase specificity survey
Format in all cases: biochemical
LTK (TYK1) = molecular target: T1, LTK (TYK1) (Homo sapiens, UniProt P29376); conditions: estimated, abridged dose response curve, read-out: Kinase inhibitory activity EC50
T1 construct: purchased Invitrogen (SelectScreen platform)
Outline: (§1)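 Optical reporter read-out of substrate phosphorylation, with a substrate unique to each kinase and ATP at 100 micromolar. A 5-increment inhibitor series was fitted by a sigmoid 4-parameter Hill model.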

SRPK1 = molecular target: T2, SRPK1 (Homo sapiens, UniProt Q96SB4); conditions: estimated, abridged dose response curve, read-out: Kinase inhibitory activity EC50
T2 construct: purchased Invitrogen, Inc. (SelectScreen service)
T2 sequence (Q96SB4 whole entry): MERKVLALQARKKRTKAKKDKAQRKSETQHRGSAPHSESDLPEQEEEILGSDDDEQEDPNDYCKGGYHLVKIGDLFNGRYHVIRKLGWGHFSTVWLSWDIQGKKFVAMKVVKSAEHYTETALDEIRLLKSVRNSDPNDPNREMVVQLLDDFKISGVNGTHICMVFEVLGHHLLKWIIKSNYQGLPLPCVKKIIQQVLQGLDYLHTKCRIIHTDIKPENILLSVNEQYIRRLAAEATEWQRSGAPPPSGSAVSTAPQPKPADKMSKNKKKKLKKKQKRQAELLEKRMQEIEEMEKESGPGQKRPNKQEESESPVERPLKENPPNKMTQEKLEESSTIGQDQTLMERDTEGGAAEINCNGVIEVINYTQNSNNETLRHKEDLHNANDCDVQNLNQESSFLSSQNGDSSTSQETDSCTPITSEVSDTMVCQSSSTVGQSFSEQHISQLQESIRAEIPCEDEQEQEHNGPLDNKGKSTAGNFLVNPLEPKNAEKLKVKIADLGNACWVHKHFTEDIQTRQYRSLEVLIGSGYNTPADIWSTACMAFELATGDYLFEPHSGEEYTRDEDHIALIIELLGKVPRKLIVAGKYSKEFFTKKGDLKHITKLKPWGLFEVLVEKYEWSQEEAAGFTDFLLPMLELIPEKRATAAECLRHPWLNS
Outline: as §1

EGFR (ErbB1) T790M = molecular target: T3, EGFR (ErbB1) T790M (Homo sapiens, UniProt P00533, T790M); conditions: estimated, abridged dose response curve, read-out: Kinase inhibitory activity EC50
T3 construct: purchased Invitrogen (SelectScreen service)

PAK4 = molecular target: T4, PAK4 (Homo sapiens, UniProt O96013); conditions: estimated, abridged dose response curve, read-out: Kinase inhibitory activity EC50
T4 construct: purchased Invitrogen (SelectScreen platform)
T4 sequence (O96013 whole entry): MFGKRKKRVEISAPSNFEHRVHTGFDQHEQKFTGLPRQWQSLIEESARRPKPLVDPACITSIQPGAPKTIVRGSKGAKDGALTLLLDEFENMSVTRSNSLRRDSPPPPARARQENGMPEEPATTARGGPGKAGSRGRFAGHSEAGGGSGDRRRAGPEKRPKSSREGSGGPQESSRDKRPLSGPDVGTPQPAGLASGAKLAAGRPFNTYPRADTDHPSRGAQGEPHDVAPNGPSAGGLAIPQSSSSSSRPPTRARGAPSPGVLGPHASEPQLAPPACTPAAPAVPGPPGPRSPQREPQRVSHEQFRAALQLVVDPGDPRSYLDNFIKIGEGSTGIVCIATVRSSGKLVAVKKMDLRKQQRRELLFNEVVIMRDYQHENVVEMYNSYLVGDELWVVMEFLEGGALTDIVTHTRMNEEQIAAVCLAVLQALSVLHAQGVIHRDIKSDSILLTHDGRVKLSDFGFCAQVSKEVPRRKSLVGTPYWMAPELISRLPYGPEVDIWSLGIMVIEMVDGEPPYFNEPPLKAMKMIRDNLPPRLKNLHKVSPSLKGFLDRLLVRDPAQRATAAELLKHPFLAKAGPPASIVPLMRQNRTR
Outline: as §1

MAPK11 (p38 beta) = molecular target: T5, MAPK11 (p38 beta) (Homo sapiens, UniProt Q15759); conditions: estimated, abridged dose response curve, read-out: Kinase inhibitory activity EC50
T5 construct: purchased Invitrogen (SelectScreen platform)
T5 sequence (Q15759 whole entry): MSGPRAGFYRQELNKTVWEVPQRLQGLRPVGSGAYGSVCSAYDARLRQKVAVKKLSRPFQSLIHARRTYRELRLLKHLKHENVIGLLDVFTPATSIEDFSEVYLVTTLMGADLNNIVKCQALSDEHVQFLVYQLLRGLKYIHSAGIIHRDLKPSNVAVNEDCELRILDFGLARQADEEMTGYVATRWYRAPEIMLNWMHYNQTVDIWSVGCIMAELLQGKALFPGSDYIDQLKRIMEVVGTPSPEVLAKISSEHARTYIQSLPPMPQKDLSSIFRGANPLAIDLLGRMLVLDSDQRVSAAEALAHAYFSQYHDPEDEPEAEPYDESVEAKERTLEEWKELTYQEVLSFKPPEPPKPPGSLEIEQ
Outline: as §1

EGFR (ErbB1) = molecular target: T6, EGFR (ErbB1) (Homo sapiens, UniProt P00533); conditions: estimated, abridged dose response curve, read-out: Kinase inhibitory activity EC50
T6 construct: purchased Invitrogen (SelectScreen service)
Outline: as §1

NEK9 = molecular target: T7, NEK9 (Homo sapiens, UniProt Q8TD19); conditions: estimated, abridged dose response curve, read-out: Kinase inhibitory activity EC50
T7 construct: purchased Invitrogen, Inc. (SelectScreen service)
Outline: as §1

BTK = molecular target: T8, BTK (Homo sapiens, UniProt Q06187); conditions: estimated, abridged dose response curve, read-out: Kinase inhibitory activity EC50
T8 construct: purchased Invitrogen (SelectScreen)
T8 sequence (Q06187 whole entry): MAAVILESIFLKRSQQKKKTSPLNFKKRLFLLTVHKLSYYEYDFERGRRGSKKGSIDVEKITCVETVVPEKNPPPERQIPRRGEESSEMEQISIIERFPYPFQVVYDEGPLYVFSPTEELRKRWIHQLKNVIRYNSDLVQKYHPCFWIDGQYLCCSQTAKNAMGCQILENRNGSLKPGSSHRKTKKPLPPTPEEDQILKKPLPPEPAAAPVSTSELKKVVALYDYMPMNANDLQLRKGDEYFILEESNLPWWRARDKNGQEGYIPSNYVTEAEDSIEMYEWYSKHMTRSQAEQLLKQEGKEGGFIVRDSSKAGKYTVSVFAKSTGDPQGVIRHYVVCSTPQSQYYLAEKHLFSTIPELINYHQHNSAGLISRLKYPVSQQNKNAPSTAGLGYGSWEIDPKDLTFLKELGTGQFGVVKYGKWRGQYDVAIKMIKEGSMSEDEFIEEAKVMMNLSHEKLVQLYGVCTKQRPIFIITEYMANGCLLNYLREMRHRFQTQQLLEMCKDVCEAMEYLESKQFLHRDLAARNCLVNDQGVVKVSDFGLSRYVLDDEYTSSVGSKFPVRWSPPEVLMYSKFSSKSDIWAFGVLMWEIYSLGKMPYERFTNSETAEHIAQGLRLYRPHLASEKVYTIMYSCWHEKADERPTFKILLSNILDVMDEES
Outline: as §1

ADRBK2 (BARK2, GRK3) = molecular target: T9, ADRBK2 (BARK2, GRK3) (Homo sapiens, UniProt P35626)
T9 construct: purchased Invitrogen (SelectScreen platform)
Outline: as §1

MATK (HYL, CTK) = molecular target: T10, MATK (HYL, CTK) (Homo sapiens, UniProt P42679); conditions: estimated, abridged dose response curve, read-out: Kinase inhibitory activity EC50
T10 construct: purchased Invitrogen (SelectScreen service)
Outline: as §1

FLT3 D835Y = molecular target: T11, FLT3 D835Y (Homo sapiens, UniProt P36888, D835Y); conditions: estimated, abridged dose response curve, read-out: Kinase inhibitory activity EC50
T11 construct: purchased Invitrogen (SelectScreen platform)
T11 sequence (P36888 27-993 D835Y): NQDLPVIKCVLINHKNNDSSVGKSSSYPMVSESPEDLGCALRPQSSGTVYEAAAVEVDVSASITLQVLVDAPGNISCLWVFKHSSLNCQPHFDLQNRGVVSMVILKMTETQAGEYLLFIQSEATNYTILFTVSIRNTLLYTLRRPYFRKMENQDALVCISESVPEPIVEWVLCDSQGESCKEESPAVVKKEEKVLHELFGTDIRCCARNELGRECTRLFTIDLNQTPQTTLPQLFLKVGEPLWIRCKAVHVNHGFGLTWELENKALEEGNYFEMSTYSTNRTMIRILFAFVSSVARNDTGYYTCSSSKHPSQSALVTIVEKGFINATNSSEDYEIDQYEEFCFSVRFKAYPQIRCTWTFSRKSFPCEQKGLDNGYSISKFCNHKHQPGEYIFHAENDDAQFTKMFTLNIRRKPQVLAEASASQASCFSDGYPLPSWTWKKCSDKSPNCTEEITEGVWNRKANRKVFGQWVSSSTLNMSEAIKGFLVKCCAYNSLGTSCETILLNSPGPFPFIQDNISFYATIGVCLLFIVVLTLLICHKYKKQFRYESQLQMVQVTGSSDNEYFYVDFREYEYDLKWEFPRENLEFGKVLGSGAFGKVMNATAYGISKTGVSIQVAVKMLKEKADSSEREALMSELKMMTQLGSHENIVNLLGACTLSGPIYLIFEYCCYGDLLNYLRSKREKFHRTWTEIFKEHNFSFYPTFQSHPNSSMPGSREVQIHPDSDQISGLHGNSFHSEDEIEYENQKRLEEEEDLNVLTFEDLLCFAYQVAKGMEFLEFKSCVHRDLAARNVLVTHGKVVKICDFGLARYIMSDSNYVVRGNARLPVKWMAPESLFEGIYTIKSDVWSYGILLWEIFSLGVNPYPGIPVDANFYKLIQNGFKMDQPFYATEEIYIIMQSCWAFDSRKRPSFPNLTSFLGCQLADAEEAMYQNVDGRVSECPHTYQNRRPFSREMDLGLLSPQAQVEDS
Outline: as §1

FYN = molecular target: T12, FYN (Homo sapiens, UniProt P06241); conditions: estimated, abridged dose response curve, read-out: Kinase inhibitory activity EC50
T12 construct: purchased Invitrogen (SelectScreen)
T12 sequence (P06241 whole entry): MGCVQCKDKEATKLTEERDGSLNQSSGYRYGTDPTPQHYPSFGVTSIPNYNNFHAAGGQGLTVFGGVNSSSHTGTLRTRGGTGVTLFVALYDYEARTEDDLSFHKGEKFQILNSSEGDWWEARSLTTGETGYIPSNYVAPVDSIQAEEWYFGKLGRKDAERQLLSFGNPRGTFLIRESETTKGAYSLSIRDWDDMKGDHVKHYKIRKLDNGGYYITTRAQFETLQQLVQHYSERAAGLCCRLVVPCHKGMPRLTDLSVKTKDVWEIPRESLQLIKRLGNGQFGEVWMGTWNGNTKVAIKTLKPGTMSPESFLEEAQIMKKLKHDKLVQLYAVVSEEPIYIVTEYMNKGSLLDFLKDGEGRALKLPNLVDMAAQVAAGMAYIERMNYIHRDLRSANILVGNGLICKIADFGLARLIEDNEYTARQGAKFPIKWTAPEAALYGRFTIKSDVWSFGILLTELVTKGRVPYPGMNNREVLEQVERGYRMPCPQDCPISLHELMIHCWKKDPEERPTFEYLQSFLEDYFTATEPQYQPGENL
Outline: as §1

MARK1 (MARK) = molecular target: T13, MARK1 (MARK) (Homo sapiens, UniProt Q9P0L2); conditions: estimated, abridged dose response curve, read-out: Kinase inhibitory activity EC50
T13 construct: purchased Invitrogen, Inc. (SelectScreen platform)
T13 sequence (Q9P0L2 whole entry): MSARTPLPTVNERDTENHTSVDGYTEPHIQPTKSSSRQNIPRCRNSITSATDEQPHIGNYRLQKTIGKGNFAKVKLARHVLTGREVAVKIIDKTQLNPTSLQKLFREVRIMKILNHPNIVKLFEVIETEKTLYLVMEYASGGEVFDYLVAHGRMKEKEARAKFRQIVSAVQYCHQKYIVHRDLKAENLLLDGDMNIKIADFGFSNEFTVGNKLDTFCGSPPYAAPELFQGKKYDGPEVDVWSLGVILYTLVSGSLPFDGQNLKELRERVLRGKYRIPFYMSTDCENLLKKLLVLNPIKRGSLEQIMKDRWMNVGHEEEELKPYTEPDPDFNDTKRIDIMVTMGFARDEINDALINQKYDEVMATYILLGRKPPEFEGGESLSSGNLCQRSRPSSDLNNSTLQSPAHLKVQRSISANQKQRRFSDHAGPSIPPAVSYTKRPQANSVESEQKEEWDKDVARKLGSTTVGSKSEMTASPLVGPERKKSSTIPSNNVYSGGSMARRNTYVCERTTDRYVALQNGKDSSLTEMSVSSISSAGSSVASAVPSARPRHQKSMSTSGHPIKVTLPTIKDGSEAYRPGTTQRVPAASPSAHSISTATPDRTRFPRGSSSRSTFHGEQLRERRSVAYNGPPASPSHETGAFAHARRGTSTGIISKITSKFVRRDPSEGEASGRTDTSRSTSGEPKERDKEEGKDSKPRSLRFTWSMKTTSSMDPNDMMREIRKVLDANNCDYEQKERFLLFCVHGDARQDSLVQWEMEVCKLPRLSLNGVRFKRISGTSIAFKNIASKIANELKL
Outline: as §1

PASK = molecular target: T14, PASK (Homo sapiens, UniProt Q96RG2); conditions: estimated, abridged dose response curve, read-out: Kinase inhibitory activity EC50
T14 construct: purchased Invitrogen, Inc. (SelectScreen platform)
T14 sequence (Q96RG2 whole entry): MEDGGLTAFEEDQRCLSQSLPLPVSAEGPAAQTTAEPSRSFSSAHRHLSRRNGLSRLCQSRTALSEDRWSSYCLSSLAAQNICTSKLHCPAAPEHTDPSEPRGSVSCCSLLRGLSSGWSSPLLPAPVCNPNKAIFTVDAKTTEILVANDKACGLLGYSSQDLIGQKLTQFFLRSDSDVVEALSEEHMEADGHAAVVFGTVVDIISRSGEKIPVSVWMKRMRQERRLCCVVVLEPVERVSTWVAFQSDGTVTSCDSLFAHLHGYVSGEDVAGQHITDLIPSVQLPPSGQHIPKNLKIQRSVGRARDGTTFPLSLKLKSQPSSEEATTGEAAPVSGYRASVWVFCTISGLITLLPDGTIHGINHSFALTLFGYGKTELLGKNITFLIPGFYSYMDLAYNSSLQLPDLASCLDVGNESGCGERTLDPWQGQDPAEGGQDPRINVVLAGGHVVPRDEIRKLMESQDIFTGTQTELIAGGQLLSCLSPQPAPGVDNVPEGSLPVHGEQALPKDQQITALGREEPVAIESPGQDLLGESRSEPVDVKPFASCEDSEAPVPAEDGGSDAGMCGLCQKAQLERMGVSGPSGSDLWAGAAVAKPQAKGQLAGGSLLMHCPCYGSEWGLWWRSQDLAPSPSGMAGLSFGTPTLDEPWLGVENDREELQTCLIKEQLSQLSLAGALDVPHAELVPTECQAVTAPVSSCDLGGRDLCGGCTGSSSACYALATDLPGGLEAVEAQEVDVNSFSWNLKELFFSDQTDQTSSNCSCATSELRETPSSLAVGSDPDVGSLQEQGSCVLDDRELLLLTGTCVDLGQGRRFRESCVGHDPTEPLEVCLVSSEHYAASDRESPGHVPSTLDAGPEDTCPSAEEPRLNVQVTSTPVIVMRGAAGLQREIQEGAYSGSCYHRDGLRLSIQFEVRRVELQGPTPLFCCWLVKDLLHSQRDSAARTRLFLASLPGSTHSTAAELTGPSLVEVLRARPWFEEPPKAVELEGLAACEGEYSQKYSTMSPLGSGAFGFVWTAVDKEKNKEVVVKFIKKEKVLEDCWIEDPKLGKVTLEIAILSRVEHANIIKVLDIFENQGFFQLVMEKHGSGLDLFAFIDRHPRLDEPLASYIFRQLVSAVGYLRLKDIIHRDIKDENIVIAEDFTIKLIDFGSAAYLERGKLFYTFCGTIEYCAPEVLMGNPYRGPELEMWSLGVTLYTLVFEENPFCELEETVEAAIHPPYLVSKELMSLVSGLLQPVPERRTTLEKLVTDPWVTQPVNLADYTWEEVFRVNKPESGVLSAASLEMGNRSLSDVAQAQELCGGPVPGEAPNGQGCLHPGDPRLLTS
Outline: as §1

ERBB4 (HER4) = molecular target: T15, ERBB4 (HER4) (Homo sapiens, UniProt Q15303); conditions: estimated, abridged dose response curve, read-out: Kinase inhibitory activity EC50
T15 construct: purchased Invitrogen (SelectScreen service)
Outline: as §1

| EC50 (ADRBK2 (BARK2, GRK3); ADRBK2 (BARK2, GRK3), estimated, abridged dose response curve, read-out: Kinase inhibitory activity EC50) [µM] | SMILES | EC50 (LTK (TYK1)) [µM] | EC50 (SRPK1) [µM] | EC50 (EGFR (ErbB1) T790M) [µM] | EC50 (PAK4) [µM] | EC50 (MAPK11 (p38 beta)) [µM] | EC50 (EGFR (ErbB1)) [µM] | EC50 (NEK9) [µM] | EC50 (BTK) [µM] | EC50 (MATK (HYL, CTK)) [µM] | EC50 (FLT3 D835Y) [µM] | EC50 (FYN) [µM] | EC50 (MARK1 (MARK)) [µM] | EC50 (PASK) [µM] | EC50 (ERBB4 (HER4)) [µM] | EC50 (ADRBK2 (BARK2, GRK3)) [µM] |
| --- | --- | --- | --- | --- | --- | --- | --- | --- | --- | --- | --- | --- | --- | --- | --- | --- |
| > 5 | CN(C)CCCNc1ccc2ncn3c4ccc5[nH]ncc5c4c(=O)c1c23 [Compound (IV)] | > 5 | > 5 | 4.01 | > 5 | > 5 | > 5 | 2.93 | 1.44 | > 5 | 0.001 | 0.754 | > 5 | 1.23 | > 5 | – |
| – | CCN(CC)CCNc1ccc2ncn3c4ccc(O)cc4c(=O)c1c23 [Symadex, 5-(2-(diethylamino)ethylamino)-8-hydroxy-6H-imidazo[4,5,1-de]acridin-6-one, reference compound] | > 5 | > 5 | 2.9 | > 5 | > 5 | > 5 | > 5 | 3.02 | > 5 | 0.003 | > 5 | 3.19 | 4.32 | > 5 | > 5 |
